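How tested: cells in 96-well plates exposed to compound for 48 hours at five concentrations. GI50 is the concentration that inhibits growth by half.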 Activity calls are given as the source filed them. Cut-off read from the data, not from the text of the source: active = GI50 up to about 1.1 µM and inactive = higher.
What was measured:
Assay in all cases: DTP human tumour cell line panel, 48 h
[1] = tested on: OVCAR-4
[2] = tested on: HCT-15
[3] = tested on: LOX IMVI
[4] = tested on: SN12C
[5] = tested on: HL-60
[6] = tested on: KM12
[7] = tested on: SF-295
[8] = tested on: SNB-19
[9] = tested on: HOP-18
[10] = tested on: CAKI-1
[11] = tested on: OVCAR-8
[12] = tested on: ACHN
[13] = tested on: SNB-75
[14] = tested on: EKVX
[15] = tested on: NCI-H226
[16] = tested on: HT-29
[17] = tested on: SK-MEL-5
[18] = tested on: PC-3
[19] = tested on: BT-549
[20] = tested on: Hs-578T

**Q.** How did the GI50 [1] turn out when `COc1ccccc1NC(=O)C1=C(C)NC(C)=C(C(=O)Nc2ccccc2OC)C1c1ccc(C2C(C(=O)Nc3ccccc3OC)=C(C)NC(C)=C2C(=O)Nc2ccccc2OC)cc1` was run?
**A.** 3.94 µM (inactive)

**Q.** And the GI50 [2]?
**A.** 2.72 µM

**Q.** What about the GI50 [3] of the same compound?
**A.** 1.29 µM (inactive)

**Q.** What about the GI50 [4] of the same compound?
**A.** 1.79 µM (inactive)

**Q.** And the GI50 [5]?
**A.** 1.46 µM (inactive)

**Q.** What about the GI50 [6] of the same compound?
**A.** 1.64 µM (inactive)

**Q.** What about the GI50 [7] of the same compound?
**A.** 1.53 µM (inactive)

**Q.** What about the GI50 [8] of the same compound?
**A.** 3.89 µM (inactive)

**Q.** What about the GI50 [9] of the same compound?
**A.** 18 µM (inactive)

**Q.** And the GI50 [10]?
**A.** 3.13 µM (inactive)

**Q.** And the GI50 [11]?
**A.** 2.53 µM (inactive)

**Q.** And the GI50 [12]?
**A.** 2.88 µM (inactive)

**Q.** And the GI50 [13]?
**A.** 10.2 µM (inactive)

**Q.** And the GI50 [14]?
**A.** 2.54 µM (inactive)

**Q.** What about the GI50 [15] of the same compound?
**A.** 3.52 µM (inactive)

**Q.** And the GI50 [16]?
**A.** 1.71 µM (inactive)

**Q.** And the GI50 [17]?
**A.** 2.84 µM (inactive)

**Q.** Which results are given for `Cc1cc(N(CC(C)Br)CC(C)Br)ccc1/N=N/c1ccccc1C(=O)O` (configuration not stated)?
**A.** GI50 [1]: 2.09 µM (inactive); GI50 [2]: 8.81 µM; GI50 [18]: 12.9 µM (inactive); GI50 [3]: 7.59 µM (inactive); GI50 [4]: 4.72 µM (inactive); GI50 [5]: 6.05 µM (inactive); GI50 [6]: 13.4 µM (inactive); GI50 [7]: 0.948 µM (active); GI50 [8]: 9.04 µM (inactive); GI50 [19]: 11.3 µM (inactive); GI50 [9]: 2.64 µM (inactive); GI50 [10]: 2.49 µM (inactive); GI50 [11]: 13.2 µM (inactive); GI50 [12]: 2.79 µM (inactive); GI50 [13]: 2.43 µM (inactive); GI50 [14]: 9.12 µM (inactive); GI50 [20]: 11.1 µM (inactive); GI50 [15]: 4.52 µM (inactive); GI50 [16]: 4.85 µM (inactive); GI50 [17]: 3.19 µM (inactive)

**Q.** With `O=C1C=CC(=O)c2c1ccc1c3ccccc3n(-c3ccccc3)c21` as the compound, how does the GI50 [1] read?
**A.** 13.9 µM (inactive)

**Q.** And the GI50 [2]?
**A.** 3.48 µM

**Q.** And the GI50 [18]?
**A.** 13.6 µM (inactive)

**Q.** What about the GI50 [3] of the same compound?
**A.** 7.1 µM (inactive)

**Q.** What about the GI50 [4] of the same compound?
**A.** 11.5 µM (inactive)

**Q.** And the GI50 [5]?
**A.** 0.501 µM (active)

**Q.** And the GI50 [6]?
**A.** 17.9 µM (inactive)

**Q.** What about the GI50 [7] of the same compound?
**A.** 14.6 µM (inactive)

**Q.** And the GI50 [8]?
**A.** 19.5 µM (inactive)

**Q.** And the GI50 [19]?
**A.** 13.5 µM (inactive)

**Q.** What about the GI50 [9] of the same compound?
**A.** 7.82 µM (inactive)

**Q.** And the GI50 [10]?
**A.** 7.18 µM (inactive)

**Q.** What about the GI50 [11] of the same compound?
**A.** 4.56 µM (inactive)

**Q.** What about the GI50 [12] of the same compound?
**A.** 3.26 µM (inactive)

**Q.** What about the GI50 [13] of the same compound?
**A.** 18.9 µM (inactive)

**Q.** And the GI50 [14]?
**A.** 8.77 µM (inactive)

**Q.** And the GI50 [20]?
**A.** 17.7 µM (inactive)

**Q.** And the GI50 [15]?
**A.** 18.3 µM (inactive)

**Q.** And the GI50 [16]?
**A.** 15.8 µM (inactive)

**Q.** And the GI50 [17]?
**A.** 16.7 µM (inactive)

**Q.** How did the GI50 [1] turn out when `CC(=O)O[C@H]1C(=O)[C@@]2(C)C(C(OC(=O)c3ccccc3)[C@]3(O)C[C@H](OC(=O)C(OC(=O)CCCC(=O)NCCCN(C)C)C(NC(=O)c4ccccc4)c4ccccc4)C(C)=C1C3(C)C)C1(OC(C)=O)COC1C[C@@H]2O` (some centres not stated) was run?
**A.** 8.71 µM (inactive)

**Q.** And the GI50 [2]?
**A.** 0.406 µM

**Q.** And the GI50 [18]?
**A.** < 0.01 µM (active)

**Q.** And the GI50 [3]?
**A.** < 0.01 µM (active)

**Q.** And the GI50 [4]?
**A.** < 0.0122 µM (active)

**Q.** What about the GI50 [5] of the same compound?
**A.** < 0.01 µM (active)

**Q.** What about the GI50 [6] of the same compound?
**A.** < 0.01 µM (active)

**Q.** And the GI50 [7]?
**A.** 0.02 µM (active)

**Q.** What about the GI50 [8] of the same compound?
**A.** 0.0152 µM (active)

**Q.** What about the GI50 [19] of the same compound?
**A.** 0.0101 µM (active)

**Q.** What about the GI50 [9] of the same compound?
**A.** 0.916 µM (active)

**Q.** And the GI50 [10]?
**A.** 0.859 µM (active)

**Q.** And the GI50 [11]?
**A.** < 0.01 µM (active)

**Q.** What about the GI50 [12] of the same compound?
**A.** 0.652 µM (active)

**Q.** And the GI50 [13]?
**A.** < 0.01 µM (active)

**Q.** And the GI50 [14]?
**A.** 0.262 µM (active)

**Q.** What about the GI50 [20] of the same compound?
**A.** < 0.01 µM (active)

**Q.** And the GI50 [15]?
**A.** 0.495 µM (active)

**Q.** And the GI50 [16]?
**A.** < 0.01 µM (active)

**Q.** What about the GI50 [17] of the same compound?
**A.** < 0.01 µM (active)
